pIC50: −log10 of the molar value. One block for each molecule: values may come before it.
Columns and labels:
HOXA1-PBX1/DNA = target: T1, HOXA1-PBX1/DNA (Mus musculus, UniProt P41778); assay: EMSA, formation of HOXA1-PBX1/DNA ternary complex; assay type: binding; conditions: for Selectivity for HOXA1-PBX1/DNA ternary complex relative to the other complexes tested: versus PBX1/DNA, BRN1/DNA, BRN2/DNA
T1 construct: the mouse/human 233-319 PBX1 protein
T1 sequence (P41778 233-319): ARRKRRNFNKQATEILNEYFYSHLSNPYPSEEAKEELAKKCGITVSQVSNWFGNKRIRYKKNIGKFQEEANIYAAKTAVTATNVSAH

[1] = target: T2, HOX-PBX1 cooperative DNA binding (Homo sapiens, UniProt P40424); conditions: literature value (Knoepfler et al. 1995); read-out: IC50 for blocking cooperative HOX-PBX DNA binding; cited from earlier work
T2 sequence (P40424 1-430): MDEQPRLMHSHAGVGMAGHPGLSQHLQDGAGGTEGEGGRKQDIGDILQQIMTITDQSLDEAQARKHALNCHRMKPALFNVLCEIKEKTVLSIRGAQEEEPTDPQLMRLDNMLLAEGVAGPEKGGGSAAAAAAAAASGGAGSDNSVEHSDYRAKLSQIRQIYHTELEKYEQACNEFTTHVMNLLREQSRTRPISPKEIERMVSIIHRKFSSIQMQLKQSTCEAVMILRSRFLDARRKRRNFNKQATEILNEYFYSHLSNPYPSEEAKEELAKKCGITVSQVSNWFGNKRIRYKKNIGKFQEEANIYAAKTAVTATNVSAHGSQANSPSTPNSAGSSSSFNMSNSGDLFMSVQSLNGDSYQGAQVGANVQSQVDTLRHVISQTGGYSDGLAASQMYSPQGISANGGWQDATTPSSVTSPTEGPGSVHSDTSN

BRN1/DNA = target: T3, BRN1/DNA (Mus musculus, UniProt P31361); assay: EMSA, BRN1/DNA complex (nuclear extracts from RA treated P19 cells); assay type: binding; conditions: EMSA with BRN1 recognition element probe
T3 construct: using nuclear extracts from RA treated P19 cells; endogenous in cells; host or cells: RA-treated P19 cells, nuclear extract
T3 sequence (P31361 1-497): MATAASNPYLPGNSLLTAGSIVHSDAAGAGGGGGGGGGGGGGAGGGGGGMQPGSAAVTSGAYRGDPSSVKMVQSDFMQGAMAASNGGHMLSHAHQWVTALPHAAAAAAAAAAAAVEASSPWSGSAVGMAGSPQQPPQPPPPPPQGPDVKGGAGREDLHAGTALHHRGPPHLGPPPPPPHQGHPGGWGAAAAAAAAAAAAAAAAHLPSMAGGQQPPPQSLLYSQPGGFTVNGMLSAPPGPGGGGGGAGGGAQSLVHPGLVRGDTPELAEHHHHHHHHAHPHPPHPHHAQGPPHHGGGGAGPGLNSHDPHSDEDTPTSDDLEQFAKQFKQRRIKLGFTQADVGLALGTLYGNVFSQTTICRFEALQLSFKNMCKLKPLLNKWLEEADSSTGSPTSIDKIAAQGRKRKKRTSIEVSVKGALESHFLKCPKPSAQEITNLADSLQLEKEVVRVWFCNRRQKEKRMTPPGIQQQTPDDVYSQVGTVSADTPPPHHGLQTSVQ
Protocol: (§1) The selectivity of individual members of the library for the HOXA1-PBX1/DNA target, as well as the ability of some analogs to cross over to other transcription factor targets was evaluated by testing them in parallel against the BRN1 & BRN2 transcription factors. BRN1 and BRN2 are members of mammalian class III POU transcription factor family and are expressed in the developing embryonic brain (McEvilly et al., Science 295:1528 (2002), which is hereby incorporated by reference in its entirety). POU domain class transciption factors contain, in addition to the POU domain, a homeodomain helix-turn-helix class DNA binding motif similar to that found in the HOX and PBX class transcription factors (Josephson et al., Development 125:3087 (1998); Hara et al., PNAS 89(8):3280 (1992), which are hereby incorporated by reference in their entirety). EMSAs were performed with BRN1 & BRN2 exactly as was done with HOXA1-PBX1 except that a sequence recognition element known to bind BRN1/BRN2 was used as the probe (Pruitt et al., Gene Expression Patterns 4(6):671 (2004), which is hereby incorporated by reference in its entirety).

BRN2/DNA = target: T4, BRN2/DNA (Mus musculus, UniProt P31360); assay: EMSA, BRN2/DNA complex (nuclear extracts from RA treated P19 cells); assay type: binding; conditions: EMSA with BRN2 recognition element probe
T4 construct: using nuclear extracts from RA treated P19 cells; endogenous in cells; host or cells: RA-treated P19 cells, nuclear extract
T4 sequence (P31360 whole entry): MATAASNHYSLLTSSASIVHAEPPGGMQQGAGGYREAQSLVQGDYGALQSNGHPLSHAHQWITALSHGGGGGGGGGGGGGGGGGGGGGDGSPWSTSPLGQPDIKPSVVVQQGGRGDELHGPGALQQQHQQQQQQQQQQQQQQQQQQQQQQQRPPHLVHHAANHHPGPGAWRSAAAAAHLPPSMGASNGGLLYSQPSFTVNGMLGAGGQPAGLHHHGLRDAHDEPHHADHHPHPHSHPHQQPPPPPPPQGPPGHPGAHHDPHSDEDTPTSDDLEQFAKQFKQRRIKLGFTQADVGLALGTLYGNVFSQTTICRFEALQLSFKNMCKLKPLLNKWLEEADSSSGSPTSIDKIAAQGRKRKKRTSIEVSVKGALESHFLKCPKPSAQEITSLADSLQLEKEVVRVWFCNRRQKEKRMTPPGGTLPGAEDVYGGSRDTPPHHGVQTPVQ
Protocol: as §1

PBX1/DNA = target: T5, PBX1/DNA (Mus musculus, UniProt P41778); assay: EMSA, formation of PBX1/DNA binary complex (FIG. 1); assay type: binding; conditions: for Inhibition of formation of the PBX1/DNA binary complex: FIG. 1
T5 construct: the mouse/human 233-319 PBX1 protein
T5 sequence (P41778 233-319): T1 sequence (P41778 233-319)
From the text: Antagonist 31 differs from compound 15 by replacing the small cyclopropyl R1 with the larger 4-hydroxyphenyl group. […] On the other hand, both antagonists can bind in the hydrophobic pocket thereby preventing HOXA1 from binding to the binary complex. Upon closer evaluation of the compound 31 dose-response of the binary PBX/DNA band intensity relative to the ternary HOXA1-PBX/DNA band intensity, it was noted that the binary PBX/DNA band initially “increased” in intensity at low compound 31 concentrations. […] As the concentration of compound 31 is further increased, the binary PBX/DNA complex formation is inhibited enough to overcome the release of this binary complex from the ternary complex and, therefore, the binary band intensity begins to decrease.

[2] = Table 2, 5,6,7,8-tetrahydro-naphthalenes
[3] = Table 1, EMSA, averaged densitometric analysis of multiple gels
[4] = Table 3, tricyclo[6.2.2.0^2,7]dodeca-2(7),3,5-trienes

Molecule: QPQIYPWMRKLH
- pIC50 [1]: 4.00

Molecule: NC(=O)COc1ccc(C(=O)Nc2cccc(F)c2)c2ccccc12 [Compound 7]
- pIC50 (HOXA1-PBX1/DNA; [3]): 3.57

Molecule: CCCNC(=O)COc1ccc(C(=O)Nc2cccc(F)c2)c2ccccc12 [Compound 11]
- pIC50 (HOXA1-PBX1/DNA; [3]): 3.56

Molecule: O=C(COc1ccc(C(=O)Nc2cccc(F)c2)c2ccccc12)Nc1ccccc1 [Compound 23]
- pIC50 (HOXA1-PBX1/DNA; [3]): 3.60

Molecule: C#CCNC(=O)COc1ccc(C(=O)Nc2cccc(F)c2)c2ccccc12 [Compound 16]
- pIC50 (HOXA1-PBX1/DNA; [3]): 3.48

Molecule: O=C(COc1ccc(C(=O)Nc2cccc(F)c2)c2ccccc12)NCC(F)(F)F [Compound 17]
- pIC50 (HOXA1-PBX1/DNA; [3]): 3.95
- pIC50 (BRN1/DNA): 3.79
- pIC50 (BRN2/DNA): 3.69

Molecule: O=C(COc1ccc(C(=O)Nc2cccc(F)c2)c2ccccc12)NC1CC1 [Compound 15]
- pIC50 (HOXA1-PBX1/DNA; [3]): 3.76
- Selectivity for HOXA1-PBX1/DNA ternary complex relative to the other complexes tested (HOXA1-PBX1/DNA): selective
- pIC50 (BRN1/DNA): 3.09
- pIC50 (BRN2/DNA): < 2.00
- Inhibition of formation of the PBX1/DNA binary complex (PBX1/DNA): ternary complex only

Molecule: CC(C)NC(=O)COc1ccc(C(=O)Nc2cccc(F)c2)c2ccccc12 [Compound 12]
- pIC50 (HOXA1-PBX1/DNA; [3]): 3.57

Molecule: CC(C)CNC(=O)COc1ccc(C(=O)Nc2cccc(F)c2)c2ccccc12 [Compound 13]
- pIC50 (HOXA1-PBX1/DNA; [3]): 3.53

Results, then the molecule that gave them:

- pIC50 (HOXA1-PBX1/DNA; [2]): 4.02
Molecule: O=C(COc1ccc(C(=O)Nc2cccc(F)c2)c2c1CCCC2)Nc1ccc(O)cc1 [Compound 50]

- pIC50 (HOXA1-PBX1/DNA; [3]): 4.07
- pIC50 (BRN1/DNA): 3.85
- pIC50 (BRN2/DNA): 3.83
Molecule: O=C(COc1ccc(C(=O)Nc2cccc(F)c2)c2ccccc12)Nc1cccc(O)c1 [Compound 30]

- pIC50 (HOXA1-PBX1/DNA; [3]): 3.14
Molecule: COc1ccccc1NC(=O)COc1ccc(C(=O)Nc2cccc(F)c2)c2ccccc12 [Compound 27]

- pIC50 (HOXA1-PBX1/DNA; [4]): 3.25
Molecule: O=C(COc1ccc(C(=O)Nc2cccc(F)c2)c2c1C1CCC2CC1)NC1CC1 [Compound 61]

- pIC50 (HOXA1-PBX1/DNA; [2]): 4.08
Molecule: O=C(COc1ccc(C(=O)Nc2cccc(F)c2)c2c1CCCC2)NCC(F)(F)F [Compound 49]

- pIC50 (HOXA1-PBX1/DNA; [3]): 3.53
Molecule: O=C(COc1ccc(C(=O)Nc2cccc(F)c2)c2ccccc12)Nc1ccc(F)cc1 [Compound 26]

- pIC50 (HOXA1-PBX1/DNA; [4]): 3.71
Molecule: O=C(COc1ccc(C(=O)Nc2cccc(F)c2)c2c1C1CCC2CC1)Nc1ccc(O)cc1 [Compound 62]

- pIC50 (HOXA1-PBX1/DNA; [3]): 3.79
Molecule: COc1ccc(NC(=O)COc2ccc(C(=O)Nc3cccc(F)c3)c3ccccc23)cc1 [Compound 29]

- pIC50 (HOXA1-PBX1/DNA; [3]): 3.24
Molecule: COc1cccc(NC(=O)COc2ccc(C(=O)Nc3cccc(F)c3)c3ccccc23)c1 [Compound 28]

- pIC50 (HOXA1-PBX1/DNA; [3]): 4.19
- Selectivity for HOXA1-PBX1/DNA ternary complex relative to the other complexes tested (HOXA1-PBX1/DNA): some selectivity
- pIC50 (BRN1/DNA): 3.91
- pIC50 (BRN2/DNA): 3.86
- Inhibition of formation of the PBX1/DNA binary complex (PBX1/DNA): inhibited
- Binary PBX/DNA band intensity at low compound concentrations (PBX1/DNA; dose-response, low concentrations): increased
Molecule: O=C(COc1ccc(C(=O)Nc2cccc(F)c2)c2ccccc12)Nc1ccc(O)cc1 [Compound 31]

- pIC50 (HOXA1-PBX1/DNA; [2]): 4.18
Molecule: O=C(COc1ccc(C(=O)Nc2cccc(F)c2)c2c1CCCC2)NC1CC1 [Compound 48]

- pIC50 (HOXA1-PBX1/DNA; [4]): 3.59
Molecule: O=C(COc1ccc(C(=O)Nc2cccc(F)c2)c2c1C1CCC2CC1)NCC(F)(F)F [Compound 63, 6-[(2,2,2-Trifluoro-ethylcarbamoyl)-methoxy]-tricyclo[6.2.2.0^2,7]dodeca-2,4,6-triene-3-carboxylic Acid (3-fluoro-phenyl)-amide]

- pIC50 (HOXA1-PBX1/DNA; [3]): 3.33
Molecule: COc1ccc(NC(=O)COc2ccc(C(=O)Nc3cccc(F)c3)c3ccccc23)cc1OC [Compound 34]

From patent US7662750B2, “Protein-protein interaction antagonist screening libraries based upon 1,4-disubstituted naphthalenes and related scaffolds” (The Research Foundation of State University of New York, priority 2003, dated 2010)
